Our source for the inhibition values is patent US8937091B2 (Japan Science and Technology Agency, priority 2009, dated 2015).

In assay [1] the test system is IICR (IP3 induced calcium release) in CHO cells. Description: Assay of IICR (IP3 induced calcium release)-inhibiting action. It is filed as cell-based, Chinese hamster. Particulars: Cricetulus griseus, CHO, CHO cells, 10 μM ATP, read-out: IICR level (percentage of inhibition); for inhibition at 10 µM: test compound 10 μmol; for inhibition at 30 µM: test compound 30 μmol; for inhibition at 100 µM: test compound 100 μmol. The procedure, abridged:
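Inhibition (%) of the intracellular calcium increase triggered by 10 μM ATP, measured in CHO cells in BSS with calcium. Compound given 1 min after the buffer exchange and 2 min before ATP; values reported per compound concentration.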

In assay [2] the test system is SOCE (store operated calcium entry) in CHO cells. The assay is described as follows: Assay of SOCE (store operated calcium entry)-inhibiting action. It counts as cell-based, Chinese hamster. Particulars: Cricetulus griseus, CHO, CHO cells, thapsigargin, read-out: SOCE level (percentage of inhibition); for inhibition at 10 µM: test compound 10 μmol; for inhibition at 30 µM: test compound 30 μmol; for inhibition at 100 µM: test compound 100 μmol. In outline: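 CHO cells in calcium-free BSS received compound, then 1 μM thapsigargin 2 min later to deplete stores; after 9 min, 2 mM calcium chloride (final) added. Percent inhibition of the rise in intracellular calcium determined at various compound concentrations.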

As for `O=C(CCN(CCO)Cc1ccccc1)c1ccc(I)s1` [Example 379, 2-(N-2-hydroxyethyl-N-benzyl)aminoethyl-5-iodo-2-thienylketone], in assay [1], the inhibition at 10 µM amounted to 50%, the inhibition at 30 µM was found to be 24% and the inhibition at 100 µM came to 46%. Further, in assay [2], the inhibition at 10 µM came to 20%, the inhibition at 30 µM worked out at 40% and the inhibition at 100 µM amounted to 50%.

Consider `O=C(CCNCc1ccccc1)c1ccc(Br)s1` [Example 382, 2-N-benzylaminoethyl-5-bromo-2-thienylketone], for which, in assay [1], the inhibition at 10 µM was 0%, the inhibition at 30 µM came out at 10% and the inhibition at 100 µM came to 50%. For the same molecule, in assay [2], the inhibition at 10 µM was found to be 0%, the inhibition at 30 µM was found to be 10% and the inhibition at 100 µM was 20%.

In the case of `CCCCCCN(CCCCCC)CCC(=O)c1ccc(Br)s1` [Example 383, 2-(N,N-dihexyl)aminoethyl-5-bromo-2-thienylketone], in assay [1], the inhibition at 10 µM turned out to be 0%, the inhibition at 30 µM was 5% and the inhibition at 100 µM turned out to be 0%. Also, in assay [2], the inhibition at 10 µM stood at 25%, the inhibition at 30 µM worked out at 16% and the inhibition at 100 µM turned out to be 46%.

`CC(C)CN(CCC(=O)c1ccc(Br)s1)CC(C)C` [Example 384, 2-(N,N-diisobutyl)aminoethyl-5-bromo-2-thienylketone]: in assay [1], the inhibition at 10 µM stood at 0%, the inhibition at 30 µM was 35% and the inhibition at 100 µM worked out at 70%. Moreover, in assay [2], the inhibition at 10 µM amounted to 0%, the inhibition at 30 µM turned out to be 10% and the inhibition at 100 µM was 100%.

Turning to `CCCCCCN(CCCCCC)CCC(=O)c1ccc(Cl)s1` [Example 385, 2-(N,N-dihexyl)aminoethyl-5-chloro-2-thienylketone], in assay [1], the inhibition at 10 µM was 0%, the inhibition at 30 µM was found to be 14% and the inhibition at 100 µM is 0%. Besides, in assay [2], the inhibition at 10 µM came to 0%, the inhibition at 30 µM came to 95% and the inhibition at 100 µM came to 53%.

With `N[C@@H](CSSC[C@@H](C(=O)O)N(CCC(=O)c1ccc(Cl)s1)CCC(=O)c1ccc(Cl)s1)C(=O)O` [Example 387, N,N-bis(2-(5-chloro-2-thiophenoyl)ethyl)cystine], in assay [1], the inhibition at 10 µM turned out to be 0%, the inhibition at 30 µM amounted to 0% and the inhibition at 100 µM came out at 70%. Moreover, in assay [2], the inhibition at 10 µM was found to be 20%, the inhibition at 30 µM was 40% and the inhibition at 100 µM stood at 50%.

In the case of `NCCSSCCN(CCC(=O)c1ccc(I)cc1)CCC(=O)c1ccc(I)cc1` [Example 388, N,N-bis(4-iodobenzoylethyl)cystamine], in assay [1], the inhibition at 10 µM was found to be 0%, the inhibition at 30 µM stood at 0% and the inhibition at 100 µM is 70%. Also, in assay [2], the inhibition at 10 µM was 20%, the inhibition at 30 µM was determined as 40% and the inhibition at 100 µM came to 50%.

In the case of `CC(C)N(CCC(=O)c1ccc(I)s1)Cc1ccccc1` [Example 390, 2-(N-isopropyl-N-benzyl)aminoethyl-5-iodo-2-thienylketone], in assay [1], the inhibition at 10 µM was 0%, the inhibition at 30 µM was found to be 0% and the inhibition at 100 µM was 70%. In assay [2], the inhibition at 10 µM is 20%, the inhibition at 30 µM came out at 40% and the inhibition at 100 µM came out at 50%.

Regarding `CC(C)N(CCC(=O)c1ccc(Br)s1)C(C)C` [Example 395, 2-diisopropylaminoethyl-5-bromo-2-thienylketone], in assay [1], the inhibition at 10 µM came to 14%, the inhibition at 30 µM stood at 67% and the inhibition at 100 µM came out at 83%. Further, in assay [2], the inhibition at 10 µM was 20%, the inhibition at 30 µM stood at 40% and the inhibition at 100 µM turned out to be 50%.

`CC(C)N(CCC(=O)c1ccc(Cl)s1)C(C)C` [Example 396, 2-diisopropylaminoethyl-5-chloro-2-thienylketone]: in assay [1], the inhibition at 10 µM turned out to be 2%, the inhibition at 30 µM was found to be 72% and the inhibition at 100 µM came to 83%. Besides, in assay [2], the inhibition at 10 µM worked out at 20%, the inhibition at 30 µM came to 40% and the inhibition at 100 µM was found to be 50%.

For `CC(C)N(CCC(=O)c1ccncc1)C(C)C` [Example 397, 2-diisopropylaminoethyl-4-pyridylketone], in assay [1], the inhibition at 10 µM was 0%, the inhibition at 30 µM amounted to 0% and the inhibition at 100 µM is 10%. For the same molecule, in assay [2], the inhibition at 10 µM worked out at 20%, the inhibition at 30 µM amounted to 40% and the inhibition at 100 µM was determined as 50%.

Take `N#Cc1ccc(C(=O)CCNCCSSCCNCCC(=O)c2ccc(C#N)cc2)cc1` [Example 398]: in assay [1], the inhibition at 10 µM was determined as 1%, the inhibition at 30 µM was determined as 44% and the inhibition at 100 µM was 80%. Moreover, in assay [2], the inhibition at 10 µM is 20%, the inhibition at 30 µM turned out to be 40% and the inhibition at 100 µM turned out to be 50%.

In the case of `COC(=O)C(CSSCC(NCCC(=O)c1ccc(C#N)cc1)C(=O)OC)NCCC(=O)c1ccc(C#N)cc1` (stereo not drawn) [Example 399, N,N-bis(4-cyanobenzoylethyl)cystinemethylester], in assay [1], the inhibition at 10 µM worked out at 0%, the inhibition at 30 µM stood at 0% and the inhibition at 100 µM amounted to 70%. Also, in assay [2], the inhibition at 10 µM stood at 20%, the inhibition at 30 µM was determined as 40% and the inhibition at 100 µM was found to be 50%.

`COC(=O)C(CSSCC(NCCC(=O)c1nccs1)C(=O)OC)NCCC(=O)c1nccs1` (stereo not drawn) [Example 400]: in assay [1], the inhibition at 10 µM worked out at 19%, the inhibition at 30 µM came to 0% and the inhibition at 100 µM amounted to 13%. Also, in assay [2], the inhibition at 10 µM was found to be 20%, the inhibition at 30 µM came to 40% and the inhibition at 100 µM is 50%.

As to `COC(=O)C(CSSCC(NCCC(=O)c1ccco1)C(=O)OC)NCCC(=O)c1ccco1` (stereo not drawn) [Example 401, N,N-bis(2-furoylethyl)cystinemethylester], in assay [1], the inhibition at 10 µM stood at 31%, the inhibition at 30 µM is 1% and the inhibition at 100 µM amounted to 57%. Moreover, in assay [2], the inhibition at 10 µM was found to be 20%, the inhibition at 30 µM amounted to 40% and the inhibition at 100 µM came out at 50%.

Take `COC(=O)C(CSSCC(NCCC(=O)c1cnccn1)C(=O)OC)NCCC(=O)c1cnccn1` (stereo not drawn) [Example 402, N,N-bis(2-pyrazinoylethyl)cystinemethylester]: in assay [1], the inhibition at 10 µM was 39%, the inhibition at 30 µM came to 12% and the inhibition at 100 µM was found to be 28%. Further, in assay [2], the inhibition at 10 µM came to 20%, the inhibition at 30 µM is 40% and the inhibition at 100 µM was 50%.

With `COC(=O)C(CSSCC(NCCC(=O)c1ccc(C)s1)C(=O)OC)NCCC(=O)c1ccc(C)s1` (stereo not drawn) [Example 403, N,N-bis(2-(5-methyl-2-thiophenoyl)ethyl)cystinemethylester], in assay [1], the inhibition at 10 µM amounted to 57%, the inhibition at 30 µM was 17% and the inhibition at 100 µM was 83%. In assay [2], the inhibition at 10 µM is 20%, the inhibition at 30 µM stood at 40% and the inhibition at 100 µM stood at 50%.

With `COC(=O)C(CSSCC(NCCC(=O)c1ccc2c(c1)Cc1ccccc1-2)C(=O)OC)NCCC(=O)c1ccc2c(c1)Cc1ccccc1-2` (stereo not drawn) [Example 404], in assay [1], the inhibition at 10 µM is 54%, the inhibition at 30 µM is 84% and the inhibition at 100 µM turned out to be 94%. Moreover, in assay [2], the inhibition at 10 µM came to 20%, the inhibition at 30 µM amounted to 40% and the inhibition at 100 µM turned out to be 50%.

In the case of `CC(C)(C)N(CCC(=O)c1ccc(I)s1)Cc1ccccc1` [Example 405, 2-(N-t-butyl-N-benzyl)aminoethyl-5-iodo-2-thienylketone], in assay [1], the inhibition at 10 µM was found to be 78%, the inhibition at 30 µM turned out to be 73% and the inhibition at 100 µM was 35%. In assay [2], the inhibition at 10 µM is 20%, the inhibition at 30 µM was 40% and the inhibition at 100 µM worked out at 50%.

`COC(=O)C(CSSCC(NCCC(=O)c1ccc(I)s1)C(=O)OC)NCCC(=O)c1ccc(I)s1` (stereo not drawn) [Example 406, N,N-bis(5-iodo-2-thiophenoylethyl)cystinemethylester]: in assay [1], the inhibition at 10 µM is 49%, the inhibition at 30 µM came out at 43% and the inhibition at 100 µM was found to be 62%. In assay [2], the inhibition at 10 µM was 20%, the inhibition at 30 µM is 40% and the inhibition at 100 µM was 50%.

In the case of `CC(C)(C)N(CCC(=O)c1sccc1Br)Cc1ccccc1` [Example 407, 2-(N-t-butyl-N-benzyl)aminoethyl-3-bromo-2-thienylketone], in assay [1], the inhibition at 10 µM is 89%, the inhibition at 30 µM worked out at 83% and the inhibition at 100 µM was 77%. For the same molecule, in assay [2], the inhibition at 10 µM was found to be 20%, the inhibition at 30 µM is 40% and the inhibition at 100 µM is 50%.

Regarding `CC(C)(C)N(CCC(=O)c1ncccc1Br)Cc1ccccc1` [Example 408, 2-(N-t-butyl-N-benzyl)aminoethyl-3-bromo-2-pyridylketone], in assay [1], the inhibition at 10 µM was found to be 76%, the inhibition at 30 µM came out at 83% and the inhibition at 100 µM worked out at 77%. Besides, in assay [2], the inhibition at 10 µM worked out at 20%, the inhibition at 30 µM turned out to be 40% and the inhibition at 100 µM was 50%.

As a reminder, the inhibition is the change of the read-out against control, counted positive when it falls.
